The values below come from ChEMBL document CHEMBL1201862, “PubChem BioAssay data set” (2004).

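Values below derive from 48-hour exposures of cells grown in 96-well plates, with endpoints linearly interpolated between the two concentrations bracketing the appropriate inhibition level. GI50 is the concentration that inhibits growth by half.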 Activity calls are given as the source filed them. Cut-off read from the data, not from the text of the source: active = GI50 up to about 1.1 µM and inactive = higher.

Some test systems named below: PC-3; A498; LOX IMVI; Malme-3M; ACHN; OVCAR-3; KM12; SW-620; COLO 205; OVCAR-4; TK-10; HCC 2998; EKVX; CCRF-CEM; IGROV-1; MOLT-4; MCF7; HOP-62; SK-MEL-5; MDA-MB-231.
What all share (experiment): NCI tumour cell line growth inhibition, 48 h

As to `COc1ccc(C2=C(Cl)C(=O)O/C2=C\c2ccc(OC)c(Br)c2)cc1Cl`, the GI50 was 39.1 µM (inactive) in the assay with PC-3; 17.3 µM (inactive) with A498; 58.9 µM (inactive) in the assay with LOX IMVI; 54 µM (inactive) with Malme-3M; 16.3 µM (inactive) in the assay on ACHN; 23 µM (inactive) in the assay with OVCAR-3. In addition, the GI50 in the assay on KM12 is > 100 µM (inactive); with SW-620 it was > 100 µM (inactive); in the assay with COLO 205 it was > 100 µM (inactive); with OVCAR-4, > 100 µM (inactive); in the assay on TK-10 it was 21.5 µM (inactive); with HCC 2998, 57.9 µM (inactive). In addition, the GI50 with EKVX was 31.6 µM (inactive); in the assay on CCRF-CEM, 28.1 µM (inactive); with IGROV-1, 33.7 µM (inactive); with MOLT-4, 41.5 µM (inactive); with MCF7, 14.6 µM (inactive); with HOP-62, 14.6 µM (inactive). In the assay with SK-MEL-5, the GI50 was > 100 µM (inactive).
For `Clc1nc(Nc2nc3ccccc3[nH]2)nc(Cl)c1Cc1ccccc1`, the GI50 was > 100 µM (inactive) in the assay on PC-3; > 100 µM (inactive) in the assay on A498; 30.7 µM (inactive) in the assay on MDA-MB-231; > 100 µM (inactive) with Malme-3M; 85.7 µM (inactive) with ACHN; 81.7 µM (inactive) in the assay on KM12. The GI50 was > 100 µM (inactive) in the assay with SW-620; > 100 µM (inactive) with COLO 205; 36.1 µM (inactive) in the assay on OVCAR-4; > 100 µM (inactive) in the assay on TK-10; > 100 µM (inactive) in the assay on EKVX; 63.5 µM (inactive) in the assay on CCRF-CEM. Besides, the values for the GI50 with IGROV-1, in the assay on MOLT-4 and with SK-MEL-5 were 97.3 µM (inactive), > 100 µM (inactive) and > 100 µM (inactive), respectively.
Turning to `COc1ccc(C)cc1-c1cc(Sc2ccccc2)c(-c2cc(C)ccc2OC)o1`, the GI50 in the assay on A498 was > 31.6 µM (inactive); in the assay with LOX IMVI, > 100 µM (inactive); in the assay on Malme-3M, > 31.6 µM (inactive); in the assay with ACHN it was > 31.6 µM (inactive); with OVCAR-3, > 31.6 µM (inactive); with KM12, > 31.6 µM (inactive). The GI50 in the assay on SW-620 is > 29.6 µM (inactive); in the assay with COLO 205 it was > 31.6 µM (inactive); with OVCAR-4 it was > 31.6 µM (inactive); in the assay with TK-10, > 31.6 µM (inactive); in the assay on HCC 2998, > 31.6 µM (inactive); in the assay with EKVX it was > 31.6 µM (inactive). Further, the GI50 with CCRF-CEM, with IGROV-1, in the assay with MOLT-4, in the assay with HOP-62 and with SK-MEL-5 was > 31.6 µM (inactive) each time.
Regarding `C[C@@H](O)CCC(=O)c1ccoc1`, the GI50 in the assay with A498, with LOX IMVI, in the assay on Malme-3M, in the assay on ACHN, with OVCAR-3 and in the assay with KM12 was > 100 µM (inactive) in each case. Besides, the GI50 with SW-620, in the assay on COLO 205, in the assay with OVCAR-4, in the assay with TK-10, in the assay with HCC 2998 and in the assay with EKVX was > 100 µM (inactive) each time. Besides, the GI50 with CCRF-CEM, with IGROV-1, in the assay with MOLT-4, in the assay with HOP-62 and in the assay on SK-MEL-5 was > 100 µM (inactive) throughout.
For the molecule `O=c1[nH]c(-c2ccc(-c3nc4cc([N+](=O)[O-])ccc4c(=O)[nH]3)cc2)nc2cc([N+](=O)[O-])ccc12`, the GI50 with A498 is 16 µM (inactive); in the assay with LOX IMVI, > 100 µM (inactive); in the assay on Malme-3M, > 100 µM (inactive); with ACHN, > 100 µM (inactive); with OVCAR-3, > 100 µM (inactive); in the assay with KM12, > 100 µM (inactive). Further, the GI50 is > 100 µM (inactive) in the assay with SW-620; > 100 µM (inactive) in the assay with COLO 205; 48.8 µM (inactive) with OVCAR-4; > 100 µM (inactive) with TK-10; > 100 µM (inactive) in the assay with HCC 2998; > 100 µM (inactive) with EKVX. For the same molecule, the GI50 with CCRF-CEM, in the assay with IGROV-1, with MOLT-4, in the assay with HOP-62 and in the assay on SK-MEL-5 was > 100 µM (inactive) throughout.
In the case of `COC(=O)n1c(C[P+](c2ccccc2)(c2ccccc2)c2ccccc2)cc2ccccc21`, the GI50 with A498 was 7.26 µM (inactive); in the assay with LOX IMVI it was 1.07 µM (active); with Malme-3M, 3.47 µM (inactive); in the assay with ACHN it was 3.87 µM (inactive); in the assay on OVCAR-3 it was 1.01 µM (active); in the assay with KM12, 1.19 µM (inactive). The GI50 with SW-620 was 1.85 µM (inactive); in the assay on COLO 205 it was 1.26 µM (inactive); in the assay on OVCAR-4, 5.92 µM (inactive); with TK-10 it was 3.34 µM (inactive); in the assay with HCC 2998 it was 1.15 µM (inactive); with EKVX, 0.774 µM (active). Besides, the GI50 in the assay with CCRF-CEM is 0.931 µM (active); in the assay with IGROV-1, 0.664 µM (active); in the assay on MOLT-4, 1.64 µM (inactive); in the assay on HOP-62 it was 1.73 µM (inactive); in the assay on SK-MEL-5, 0.414 µM (active).
Consider `Cc1cnc2cc(Cl)ccc2c1SCC(=O)O`, for which the GI50 in the assay on PC-3, in the assay on A498, with MDA-MB-231, in the assay with LOX IMVI, with Malme-3M and in the assay with ACHN was > 100 µM (inactive) each time. Moreover, the GI50 in the assay on OVCAR-3, in the assay with KM12, with SW-620, with OVCAR-4, in the assay with TK-10 and with EKVX was > 100 µM (inactive) each time. Also, the GI50 with CCRF-CEM, in the assay with IGROV-1, with MOLT-4, in the assay with HOP-62 and in the assay on SK-MEL-5 was > 100 µM (inactive) each time.
Take `CC(C)(C)c1cc2c(OP(c3ccccc3)c3ccccc3)c(c1)Cc1cc(C(C)(C)C)cc(c1OP(c1ccccc1)c1ccccc1)Cc1cc(C(C)(C)C)cc(c1OP(c1ccccc1)c1ccccc1)Cc1cc(C(C)(C)C)cc(c1OP(c1ccccc1)c1ccccc1)C2`: the GI50 with A498, in the assay with LOX IMVI, in the assay on Malme-3M, in the assay on ACHN, with OVCAR-3 and with KM12 was > 5 µM (inactive) in each case. In addition, the GI50 in the assay with SW-620, in the assay on COLO 205, in the assay on OVCAR-4, in the assay on TK-10, with HCC 2998 and in the assay with EKVX was > 5 µM (inactive) each time. Moreover, the GI50 in the assay on CCRF-CEM, in the assay with IGROV-1, with MOLT-4, with HOP-62 and with SK-MEL-5 was > 5 µM (inactive) each time.
With `CCn1ncc2c1nc(-c1ccccc1)c[n+]2[O-]`, the GI50 in the assay on PC-3 was > 100 µM (inactive); in the assay with LOX IMVI, 7.01 µM (inactive); in the assay on ACHN it was > 100 µM (inactive); with OVCAR-3 it was > 100 µM (inactive); in the assay on KM12 it was > 100 µM (inactive); in the assay with COLO 205, > 100 µM (inactive). The GI50 with EKVX was > 100 µM (inactive); in the assay with CCRF-CEM, > 100 µM (inactive); with IGROV-1 it was > 100 µM (inactive); in the assay with MOLT-4, > 100 µM (inactive); with MCF7, 46 µM (inactive); with HOP-62 it was 2.22 µM (inactive).
Turning to `O=C(O)c1ccccc1C(=O)c1ccco1`, the GI50 with A498, with LOX IMVI, with Malme-3M, in the assay with ACHN, in the assay with OVCAR-3 and with KM12 was > 100 µM (inactive) throughout. The GI50 in the assay on SW-620, in the assay with COLO 205, with OVCAR-4, with TK-10, in the assay on HCC 2998 and with EKVX was > 100 µM (inactive) each time. Moreover, the GI50 in the assay on CCRF-CEM, in the assay with IGROV-1, in the assay on MOLT-4, in the assay with HOP-62 and in the assay with SK-MEL-5 was > 100 µM (inactive) each time.
With `O=S(=O)(N/N=C/c1cccc(Cl)c1Cl)c1ccccc1`, the GI50 in the assay with A498 is 40.8 µM (inactive); with LOX IMVI, 68.7 µM (inactive); in the assay on Malme-3M, > 100 µM (inactive); with ACHN it was 55 µM (inactive); in the assay on OVCAR-3 it was > 100 µM (inactive); in the assay on KM12 it was > 100 µM (inactive). For the same molecule, the GI50 was > 100 µM (inactive) in the assay with SW-620; 89.7 µM (inactive) with COLO 205; > 100 µM (inactive) in the assay with OVCAR-4; > 100 µM (inactive) in the assay with TK-10; > 100 µM (inactive) in the assay on HCC 2998; > 100 µM (inactive) with EKVX. The GI50 in the assay with CCRF-CEM is 66.2 µM (inactive); in the assay with IGROV-1 it was 77.4 µM (inactive); in the assay with MOLT-4, 26.9 µM (inactive); in the assay with HOP-62, > 100 µM (inactive); in the assay with SK-MEL-5, 43.6 µM (inactive).
On to `Cc1cc(N(CCC#N)CCC#N)ccc1/C=N\c1ccc(C(=O)NN2C(=O)/C(=C/c3ccc(N(CCC#N)CCC#N)cc3)N=C2c2cc([N+](=O)[O-])ccc2Cl)cc1`, for which the GI50 in the assay with A498 is > 100 µM (inactive); in the assay with LOX IMVI, > 100 µM (inactive); with Malme-3M, > 100 µM (inactive); in the assay with ACHN it was 53.8 µM (inactive); in the assay with OVCAR-3, > 100 µM (inactive); in the assay with KM12 it was > 100 µM (inactive). In addition, the GI50 with SW-620, with COLO 205, with OVCAR-4, with TK-10, with HCC 2998 and in the assay on EKVX was > 100 µM (inactive) each time. The GI50 in the assay with CCRF-CEM was 65.6 µM (inactive); in the assay with IGROV-1, > 100 µM (inactive); in the assay on HOP-62, 95.1 µM (inactive); in the assay with SK-MEL-5, 55.3 µM (inactive).
